Results as given in patent publication US11045457B2, “Piperidinyl-3-(aryloxy)propanamides and propanoates” (priority 2018, dated 2021).

Assays:
SSTR4 [1] = target: T1, SSTR4 (Homo sapiens (Human), UniProt P31391); test: Inhibition of forskolin stimulated cAMP in CHO-K1 cells overexpressing SSTR4; format: cell-based; details: for EC50: read-out: SSTR4 Activity pEC50 (converted)
Summary of the method: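 Read-out is a HTRF LANCE Ultra cAMP competition using Eu-labelled streptavidin and biotin-cAMP, incubated 60 min at room temperature. It followed a 30 min room-temperature exposure of Kreb's Ringer-washed cells to compound plus forskolin. Potency is expressed as pEC50.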

SSTR4 [2] = target: T1, SSTR4; test: SSTR4 I-125 somatostatin competition binding assay (membranes from CHO-K1 cells overexpressing SSTR4); details: competition with I-125 labeled somatostatin; for IC50: read-out: SSTR4 Binding pIC50 (converted)
SSTR1 = SSTR1 (Homo sapiens (Human), UniProt P30872); test: SSTR1 I-125 somatostatin competition binding assay for selectivity versus SSTR4 (membranes from CHO-K1 cells overexpressing SSTR1); details: for SSTR1 Binding pIC50: competition with I-125 labeled somatostatin, CHO-K1 SSTR1 membranes;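 as to all read-outs here: Filter-based radioligand binding, bound label counted by scintillation after 60 min incubation at room temperature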
Sequence of SSTR1 (P30872 whole entry): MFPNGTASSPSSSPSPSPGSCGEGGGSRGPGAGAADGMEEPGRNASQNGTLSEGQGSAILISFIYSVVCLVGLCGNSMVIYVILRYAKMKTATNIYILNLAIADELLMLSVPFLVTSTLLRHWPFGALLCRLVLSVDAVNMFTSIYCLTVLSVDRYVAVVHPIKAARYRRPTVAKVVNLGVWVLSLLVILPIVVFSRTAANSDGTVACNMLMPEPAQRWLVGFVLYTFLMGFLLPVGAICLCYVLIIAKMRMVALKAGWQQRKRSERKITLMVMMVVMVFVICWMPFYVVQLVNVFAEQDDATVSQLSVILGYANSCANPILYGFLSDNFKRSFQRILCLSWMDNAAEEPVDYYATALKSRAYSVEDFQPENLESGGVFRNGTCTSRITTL
Experimental: Membranes from CHO-K1 cells overexpressing SSTR1 are purchased from Perkin Elmer (catalog number ES-520-M400UA). […] Then 10 μg of SSTR1 membranes in 50 μL assay buffer are added per well. The plate is incubated for 60 minutes at room temperature. […] The contents of the assay plate are transferred to filters with a TomTech harvester and washed 5 times with 20 mM HEPES, 100 mM NaCl. […] The scintillator sheets are melted to the filters using a heat block. The filters are then read in a MicroBeta scintillation counter. Binding Ki curves are generated using Activity Base for Screening Data Management and the results are reported as pIC50.

T1 sequence (P31391 whole entry): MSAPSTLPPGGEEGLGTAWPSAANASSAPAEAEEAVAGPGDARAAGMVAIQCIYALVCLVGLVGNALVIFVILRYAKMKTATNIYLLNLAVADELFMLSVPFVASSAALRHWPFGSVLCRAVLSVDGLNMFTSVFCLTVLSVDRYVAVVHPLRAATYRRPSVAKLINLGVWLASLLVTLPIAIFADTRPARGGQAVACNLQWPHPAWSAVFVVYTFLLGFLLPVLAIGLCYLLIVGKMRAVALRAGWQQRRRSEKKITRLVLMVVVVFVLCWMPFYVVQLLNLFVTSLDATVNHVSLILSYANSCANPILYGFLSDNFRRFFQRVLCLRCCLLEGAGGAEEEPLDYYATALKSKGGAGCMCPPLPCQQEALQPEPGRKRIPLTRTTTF

| Structure (SMILES) | SSTR4 Activity pEC50 (SSTR4 [1]) | SSTR4 Binding pIC50 (SSTR4 [2]) | SSTR1 Binding pIC50 (SSTR1) | EC50 (SSTR4 [1]) [nM] | IC50 (SSTR4 [2]) [nM] | IC50 (SSTR1) [nM] |
| --- | --- | --- | --- | --- | --- | --- |
| Cc1ccccc1[C@@H]1CNCC[C@@H]1N(C)C(=O)C(C)(C)COc1ncccc1C(F)(F)F (relative stereo) [Example 156, N,2,2-trimethyl-N-(cis-3-(o-tolyl)piperidin-4-yl)-3-((3-(trifluoromethyl)pyridin-2-yl)oxy)propanamide] | 7.2 | 6.4 | 4.6 |  |  |  |
| CN1CCC(NC(=O)C(C)(C)COc2ncccc2OC(F)(F)F)C2(CC2)C1 (stereo not drawn) [Example 119, 2,2-dimethyl-N-(5-methyl-5-azaspiro[2.5]octan-8-yl)-3-((3-(trifluoromethoxy)pyridin-2-yl)oxy)propanamide] | 9.0 | 7.3 | 5.0 |  |  |  |
| CN1C[C@H](NC(=O)C(C)(C)COc2ncccc2OC(F)(F)F)C2(CC2)C1 [Example 150, (R)-2,2-dimethyl-N-(5-methyl-5-azaspiro[2.4]heptan-7-yl)-3-((3-(trifluoromethoxy)pyridin-2-yl)oxy)propanamide] | 8.2 | 7.3 | 5.6 |  |  |  |
| C[C@@H]1CN(C)CC[C@H]1NC(=O)C(F)(F)COc1ncccc1OC(F)(F)F (racemic) [Example 200, N-(trans-1,3-dimethylpiperidin-4-yl)-2,2-difluoro-3-((3-(trifluoromethoxy)pyridin-2-yl)oxy)propanamide] |  |  |  | 31.6 | 126 | 39800 |
| C[C@@H]1CN(C)C[C@H]1NC(=O)C(C)(C)COc1ncccc1OC(F)(F)F (relative stereo) [Example 180, N-(trans-1,4-dimethylpyrrolidin-3-yl)-2,2-dimethyl-3-((3-(trifluoromethoxy)pyridin-2-yl)oxy)propanamide] | 7.6 | 6.5 | 5.4 |  |  |  |
| CN1CC[C@H](NC(=O)C(C)(C)COc2ncccc2OC(F)(F)F)[C@@H](F)C1 [Example 124, N-((3S,4S)-3-fluoro-1-methylpiperidin-4-yl)-2,2-dimethyl-3-((3-(trifluoromethoxy)pyridin-2-yl)oxy)propanamide] | 7.6 | 7.4 | 5.1 |  |  |  |
| CC(C)[C@@H]1CN(C)C[C@H]1NC(=O)C(C)(C)COc1ncccc1C(F)(F)F (racemic) [Example 15, trans-N-(4-isopropyl-1-methylpyrrolidin-3-yl)-2,2-dimethyl-3-((3-(trifluoromethyl)pyridin-2-yl)oxy)propanamide] |  |  |  | 20 | 158 | 3160 |
| CN1CC[C@@H](NC(=O)C(C)(C)COc2ccccc2C(F)(F)F)C1 [Example 65, (R)-2,2-dimethyl-N-(1-methylpyrrolidin-3-yl)-3-(2-(trifluoromethyl)phenoxy)propanamide] | 7.9 | 7.0 | 5.1 |  |  |  |
| Cc1c([C@@H]2CN(C)C[C@H]2NC(=O)C(C)(C)COc2ncccc2OC(F)(F)F)cnn1C (relative stereo) [Example 30, trans-N-(4-(1,5-dimethyl-1H-pyrazol-4-yl)-1-methylpyrrolidin-3-yl)-2,2-dimethyl-3-((3-(trifluoromethoxy)pyridin-2-yl)oxy)propanamide] | 9.0 | 7.8 | 6.9 |  |  |  |
| CN1CC[C@@H](NC(=O)C(C)(C)COc2ncccc2C2CC2)C1 [Example 53, (R)-3-((3-cyclopropylpyridin-2-yl)oxy)-2,2-dimethyl-N-(1-methylpyrrolidin-3-yl)propanamide] | 7.4 | 6.6 | 4.6 |  |  |  |
| C[C@H]1CNCC[C@@H]1NC(=O)C(F)(F)COc1ncccc1C(F)(F)F [Example 208, 2,2-difluoro-N-((3S,4S)-3-methylpiperidin-4-yl)-3-((3-(trifluoromethyl)pyridin-2-yl)oxy)propanamide] | 8.6 | 7.1 | 4.4 |  |  |  |
